Values joined by “and” are separate entries in the source; they are usually repeats but may differ in a detail not shown here. Identical values can stand only once. Toxic doses and inconclusive results are not listed. The calls were made as follows: active = survival T/C of 150% or more; inactive = T/C below 125% in these data.
Tested on: P388 leukemia ip, CD2F1 mice, survival T/C
Test: NCI In Vivo Anticancer Drug Screen. Data for tumor model P388 Leukemia (intraperitoneal) in CD2F1 (CDF1) mice
Settings: endpoint: median survival time, higher = longer survival
Procedure, shortened: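 Mice carrying the transplanted tumor received test compound or vehicle. Survival was recorded in each group, and the value is the treated-group measurement divided by that of the vehicle-treated control group.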

[1] = dose: 50.0 mg/kg/injection, schedule: Q01DX001 (ip), vehicle: Klucel (hydroxypropylcellulose) (HPC)
[2] = dose: 100.0 mg/kg/injection, schedule: Q01DX001 (ip), vehicle: Klucel (hydroxypropylcellulose) (HPC)
[3] = dose: 60.0 mg/kg/injection, schedule: Q01DX005 (ip), vehicle: saline with Tween-80
[4] = dose: 120.0 mg/kg/injection, schedule: Q01DX005 (ip), vehicle: saline with Tween-80
[5] = dose: 240.0 mg/kg/injection, schedule: Q01DX005 (ip), vehicle: saline with Tween-80
[6] = dose: 6.25 mg/kg/injection, schedule: Q01DX009 (ip), vehicle: saline
[7] = dose: 12.5 mg/kg/injection, schedule: Q01DX009 (ip), vehicle: saline
[8] = dose: 25.0 mg/kg/injection, schedule: Q01DX009 (ip), vehicle: saline
[9] = dose: 12.5 mg/kg/injection, schedule: Q01DX009 (ip), vehicle: saline with Tween-80
[10] = dose: 25.0 mg/kg/injection, schedule: Q01DX009 (ip), vehicle: saline with Tween-80
[11] = dose: 50.0 mg/kg/injection, schedule: Q01DX009 (ip), vehicle: saline
[12] = dose: 100.0 mg/kg/injection, schedule: Q01DX009 (ip), vehicle: saline

Measured: T/C

CN(C)/N=C(\N)c1nnn(C)n1
inactive: [1] 106 % of control | [2] 101 % of control | dose: 200.0 mg/kg/injection, schedule: Q01DX001 (ip), vehicle: Klucel (hydroxypropylcellulose) (HPC) 100 % of control

COC(=O)C1=C(C(=O)OC)[C](C(=O)c2ccccc2)([Sn]([CH3])([CH3])[CH3])N=N1 (stereo unspecified)
inactive: dose: 0.78 mg/kg/injection, schedule: Q01DX009 (ip), vehicle: saline 92 % of control | dose: 1.56 mg/kg/injection, schedule: Q01DX009 (ip), vehicle: saline 89 % of control | dose: 3.12 mg/kg/injection, schedule: Q01DX009 (ip), vehicle: saline 93 % of control

CN(C)c1ccc(-c2nnc3c(c(=O)n(C)c(=O)n3C)[n+]2[O-])cc1
inactive: dose: 25.0 mg/kg/injection, schedule: Q01DX001 (ip), vehicle: Klucel (hydroxypropylcellulose) (HPC) 102 % of control | [1] 93 % of control | [2] 100 % of control and 94 % of control

COC(=O)c1nnn(-c2cccc(C(F)(F)F)c2)c1C(=O)c1ccc(Cl)c(Cl)c1
inactive: [3] 99 % of control | [4] 100 % of control | [5] 92 % of control

COc1ccccc1-n1c(Cc2cccc3ccccc23)n[nH]c1=S
inactive: dose: 50.0 mg/kg/injection, schedule: Q01DX005 (ip), vehicle: Klucel (hydroxypropylcellulose) (HPC) 99 % of control | dose: 100.0 mg/kg/injection, schedule: Q01DX005 (ip), vehicle: Klucel (hydroxypropylcellulose) (HPC) 100 % of control | dose: 200.0 mg/kg/injection, schedule: Q01DX005 (ip), vehicle: Klucel (hydroxypropylcellulose) (HPC) 99 % of control

CC(O)C([NH-])C(=O)O.CC([NH-])C(=O)O.[Cu+2] (stereo unspecified)
inactive: [6] 94 % of control | [7] 97 % of control | [8] 94 % of control

CC1=C(Br)C(c2ccccc2)=Nc2ccccc2N1
inactive: [9] 123 % of control | [10] 116 % of control | [11] 119 % of control | [12] 110 % of control

C/C(N)=C\C(=S)Nc1ccccc1
inactive: dose: 12.5 mg/kg/injection, schedule: Q01DX009 (ip), vehicle: Klucel (hydroxypropylcellulose) (HPC) 100 % of control | dose: 25.0 mg/kg/injection, schedule: Q01DX009 (ip), vehicle: Klucel (hydroxypropylcellulose) (HPC) 106 % of control | dose: 50.0 mg/kg/injection, schedule: Q01DX009 (ip), vehicle: Klucel (hydroxypropylcellulose) (HPC) 104 % of control

CC1(C)CC(COC(=O)c2c3ccccc3c3ccc4cccc5ccc2c3c54)CC(C)(C)N1O
inactive: dose: 50.0 mg/kg/injection, schedule: Q01DX009 (ip), vehicle: saline with Tween-80 98 % of control | dose: 100.0 mg/kg/injection, schedule: Q01DX009 (ip), vehicle: saline with Tween-80 106 % of control | dose: 200.0 mg/kg/injection, schedule: Q01DX009 (ip), vehicle: saline with Tween-80 91 % of control

COCC(=O)c1ccc(Cl)cc1
inactive: [11] 105 % of control | [12] 110 % of control and 96 % of control | dose: 200.0 mg/kg/injection, schedule: Q01DX009 (ip), vehicle: saline 105 % of control and 107 % of control

Cc1cc(O)c2c(c1)C(=O)c1c(-c3ccc(O)c4c3C(=O)c3c(O)c(C)cc(O)c3C4=O)ccc(O)c1C2=O
inactive: dose: 3.0 mg/kg/injection, schedule: Q01DX005 (ip), vehicle: Klucel (hydroxypropylcellulose) (HPC) 95 % of control | dose: 6.0 mg/kg/injection, schedule: Q01DX005 (ip), vehicle: Klucel (hydroxypropylcellulose) (HPC) 95 % of control | dose: 12.0 mg/kg/injection, schedule: Q01DX005 (ip), vehicle: Klucel (hydroxypropylcellulose) (HPC) 93 % of control | dose: 24.0 mg/kg/injection, schedule: Q01DX005 (ip), vehicle: Klucel (hydroxypropylcellulose) (HPC) 86 % of control

CN(C)CCCNC1=C(Cl)C(=O)C(NCCCN(C)C)=C(Cl)C1=O
inactive: [6] 91 % of control | [7] 94 % of control | [8] 111 % of control | [11] 89 % of control

CN=C(NC)c1ccc(NC(=O)c2cc(OC)cc(C(=O)Nc3ccc(C(=NC)NC)cc3)c2)cc1
inactive: dose: 6.25 mg/kg/injection, schedule: Q01DX005 (ip), vehicle: Klucel (hydroxypropylcellulose) (HPC) 100 % of control | dose: 12.5 mg/kg/injection, schedule: Q01DX005 (ip), vehicle: Klucel (hydroxypropylcellulose) (HPC) 110 % of control | dose: 25.0 mg/kg/injection, schedule: Q01DX005 (ip), vehicle: Klucel (hydroxypropylcellulose) (HPC) 110 % of control

c1ccc(-c2nc3ccccc3nc2-c2ccc(Sc3ccc(-c4nc5ccccc5nc4-c4ccccc4)cc3)cc2)cc1
inactive: dose: 6.25 mg/kg/injection, schedule: Q01DX009 (ip), vehicle: saline with Tween-80 96 % of control | [9] 93 % of control | [10] 90 % of control

O=c1[nH]c(=O)n(C2CC(O)C(CO)O2)cc1N1CCOCC1 (stereo unspecified)
inactive: dose: 50.0 mg/kg/injection, schedule: Q01DX005 (ip), vehicle: saline 108 % of control | dose: 100.0 mg/kg/injection, schedule: Q01DX005 (ip), vehicle: saline 101 % of control | dose: 200.0 mg/kg/injection, schedule: Q01DX005 (ip), vehicle: saline 108 % of control

N#CC1=CCc2ccccc2N1C(=O)Oc1ccccc1
inactive: [3] 97 % of control | [4] 88 % of control | [5] 88 % of control

O=C1/C(=C/c2ccncc2)CCCc2ccccc21
inactive: dose: 60.0 mg/kg/injection, schedule: Q01DX005 (ip), vehicle: Klucel (hydroxypropylcellulose) (HPC) 102 % of control | dose: 120.0 mg/kg/injection, schedule: Q01DX005 (ip), vehicle: Klucel (hydroxypropylcellulose) (HPC) 104 % of control

CSC(=S)c1ccc(NSc2ccccc2[N+](=O)[O-])cc1
inactive: dose: 100.0 mg/kg/injection, schedule: Q04DX003 (ip), vehicle: saline 113 % of control | dose: 200.0 mg/kg/injection, schedule: Q04DX003 (ip), vehicle: saline 110 % of control | dose: 400.0 mg/kg/injection, schedule: Q04DX003 (ip), vehicle: saline 93 % of control

From PubChem BioAssay AID330 (DTP/NCI, 2004)
